Laboratory results as given in patent US12091402B2 (Avilar Therapeutics, Inc., priority 2021, dated 2024).
Where two headings read alike, the source gives them in different places.

Experiments:
HepG2 cells = test: Cellular uptake assay of AF488-labeled antibody (HepG2); type: cell-based; settings: HepG2 cells
Protocol: The cellular uptake assay is designed to measure compound-mediated cellular uptake of fluorescently labeled antibody following ternary complex formation with the ASGPR receptor and endocytosis of the entire complex into cells.
Human IgG (Sigma-Aldrich, 14506) was covalently labeled with Alexa Fluor 488 using the Alexa Fluor™ 488 Protein Labeling Kit (Thermo Fisher, A10235) following the manufacturer's instructions. HepG2 cells were plated in DMEM supplemented with 10% FBS at 5,000 cells per well in a 96-well microtiter plate and incubated for approximately 18 hours at 37° C./5% CO2. For studies using human IgG, 100 nM AF488-labeled human IgG antibodies and serial dilutions of IgG-based degrader (0.1% DMSO final concentration) were added to the cells and the mixture was incubated at 37° C. for 6 hours. For studies using DNP, 100 nM AF488-labeled DNP antibodies and serial dilutions of DNP-based degrader (0.1% DMSO final concentration) were added to the cells and the mixture was incubated at 37° C. for 6 hours. HepG2 cells were fixed in 100% methanol at −20° C. for 20 min, washed 3× with PBS, then stained with DAPI (Thermo, Cat #H3570). HepG2 cells were imaged for DAPI and Alexa Fluor 488 using the Operetta CLS, high-content analysis system (PerkinElmer). Data is presented as the ratio of the number of cells positive for hIgG or DNP (AF-488 fluorescence) over the total cell number (measured by DAPI).

[1] = biological target: T1, ASGPR receptor on the cell surface (HepG2 cells) (Homo sapiens, UniProt P07306); test: Ternary complex formation assay (flow cytometry, HepG2); type: cell-based
T1 construct: host or cells: HepG2
T1 sequence (P07306 1-291): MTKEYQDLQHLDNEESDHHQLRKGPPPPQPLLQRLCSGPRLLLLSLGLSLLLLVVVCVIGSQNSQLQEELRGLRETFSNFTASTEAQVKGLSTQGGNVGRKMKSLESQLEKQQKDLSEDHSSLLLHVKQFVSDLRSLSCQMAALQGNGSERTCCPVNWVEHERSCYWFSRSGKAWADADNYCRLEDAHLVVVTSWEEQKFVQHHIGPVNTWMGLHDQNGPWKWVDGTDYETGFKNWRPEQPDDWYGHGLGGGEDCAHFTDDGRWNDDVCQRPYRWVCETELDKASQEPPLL
T1 sequence (P07307 1-311 partner): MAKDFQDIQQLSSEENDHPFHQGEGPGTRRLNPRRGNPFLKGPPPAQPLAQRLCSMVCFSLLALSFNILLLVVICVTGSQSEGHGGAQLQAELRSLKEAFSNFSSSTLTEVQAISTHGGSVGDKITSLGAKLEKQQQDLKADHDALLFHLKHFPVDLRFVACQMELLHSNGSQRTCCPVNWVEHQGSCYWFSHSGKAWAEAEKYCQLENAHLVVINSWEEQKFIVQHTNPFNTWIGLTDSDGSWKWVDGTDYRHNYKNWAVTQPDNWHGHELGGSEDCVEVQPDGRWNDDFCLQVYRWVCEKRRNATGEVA
Source text: The ternary complex formation assay is designed to identify the concentration of Degrader required to form a complex between the degrader, a constant concentration of fluorescently-labeled antibody and the ASGPR receptor on the cell surface. The peak mean fluorescence intensity (MFI) occurs at the optimal degrader concentration for ternary complex formation. Sub-optimal concentrations of degrader (too much or too little) results in fewer complexes formed and a reduced […].
Human IgG (Sigma-Aldrich, 14506) was covalently labeled with Alexa Fluor 488 using the Alexa Fluor™ 488 Protein Labeling Kit (Thermo Fisher, A10235) following the manufacturer's instructions. HepG2 cells (ATCC, HIB-8065) were cultured to about 70% confluence and harvested by trypsinization. Single cell suspensions of HepG2 cells were plated in 96 well plates at 1×10^5 cells/well in cell culture media (DMEM supplemented with […]) and placed at 4° C. For studies using human IgG, cells were incubated with 100 nM AF488-labeled anti-human IgG and serial dilutions of IgG-based degrader for 1 hour at 4° C. For studies using DNP, cells were incubated with 100 nM AF488-labeled polyclonal rabbit anti-dinitrophenyl (DNP) antibodies (ThermoFisher) and serial dilutions of DNP-based degrader for 1 hour at 4° C. After washing once with ice-cold PBS containing 0.1% BSA and 0.1% sodium azide, cells were resuspended in 150 uL PBS+0.1% BSA and cell-associated AF488 fluorescence was measured by flow cytometry using the iQue® Screener PLUS Flow Cytometer (IntelliCyt).

[2] = 100 nM AF488-labeled antibody, 37° C. for 6 hours, class symbols, read-out: Uptake Assay EC50

Row | Structure (SMILES) | EC50 (HepG2 cells; [2]) [µM] | EC50 [1] [µM] | EC50 (HepG2 cells; read-out: Uptake EC50) [µM] | EC50 ([1]; HepG2 cells, ternary complex formation, read-out: TCF EC50) [µM]
1 | CC(C)C[C@@H]1NC(=O)[C@H](Cc2c[nH]cn2)NC(=O)[C@H](Cc2c[nH]c3ccccc23)NC(=O)[C@H](C)NC(=O)[C@@H]2CSSC[C@H](NC(=O)[C@H](Cc3c[nH]c4ccccc34)NC(=O)[C@H](C(C)C)NC(=O)[C@H](CC(C)C)NC(=O)[C@H](CCC(=O)O)NC(=O)CNC1=O)C(=O)N[C@@H]([C@@H](C)O)C(=O)N1CCC[C@@H]1C(=O)N1C[C@@H](NC(=O)CNC(COCCC(=O)NCCOCCOCCOCCOC[C@H]3OC[C@H](Nc4nccc(C(F)(F)F)n4)[C@@H](O)[C@H]3O)COCCC(=O)NCCOCCOCCOCCOC[C@H]3OC[C@H](Nc4nccc(C(F)(F)F)n4)[C@@H](O)[C@H]3O)C[C@H]1C(=O)N[C@@H](CC(=O)O)C(=O)N2 [Compound 50] | < 0.1 | < 0.1 | – | –
2 | CC(C)C[C@@H]1NC(=O)[C@H](Cc2c[nH]cn2)NC(=O)[C@H](Cc2c[nH]c3ccccc23)NC(=O)[C@H](C)NC(=O)[C@@H]2CSSC[C@H](NC(=O)[C@H](Cc3c[nH]c4ccccc34)NC(=O)[C@H](C(C)C)NC(=O)[C@H](CC(C)C)NC(=O)[C@H](CCC(=O)O)NC(=O)CNC1=O)C(=O)N[C@@H]([C@@H](C)O)C(=O)N1CCC[C@@H]1C(=O)N1C[C@@H](NC(=O)CCOCCOCCOCCNC(=O)CCCc3cn(CCCCCC(=O)NC(COCCC(=O)NCCOCCOCCOCCOC[C@H]4OC[C@H](Nc5nccc(C(F)(F)F)n5)[C@@H](O)[C@H]4O)COCCC(=O)NCCOCCOCCOCCOC[C@H]4OC[C@H](Nc5nccc(C(F)(F)F)n5)[C@@H](O)[C@H]4O)nn3)C[C@H]1C(=O)N[C@@H](CC(=O)O)C(=O)N2 [Compound 11] | < 0.1 | < 0.1 | – | –
3 | CC(C)C[C@@H]1NC(=O)[C@H](Cc2c[nH]cn2)NC(=O)[C@H](Cc2c[nH]c3ccccc23)NC(=O)[C@H](C)NC(=O)[C@@H]2CSSC[C@H](NC(=O)[C@H](Cc3c[nH]c4ccccc34)NC(=O)[C@H](C(C)C)NC(=O)[C@H](CC(C)C)NC(=O)[C@H](CCC(=O)O)NC(=O)CNC1=O)C(=O)N[C@@H]([C@@H](C)O)C(=O)N1CCC[C@@H]1C(=O)N1C[C@@H](NC(=O)CCOCCOCCOCCOCCNC(=O)CCCc3cn(CCCCCC(=O)NC(COCCC(=O)NCCOCCOCCOCCO[C@@H]4O[C@H](CO)[C@H](O)[C@H](O)[C@H]4Nc4cncc(C(F)(F)F)n4)COCCC(=O)NCCOCCOCCOCCO[C@@H]4O[C@H](CO)[C@H](O)[C@H](O)[C@H]4Nc4cncc(C(F)(F)F)n4)nn3)C[C@H]1C(=O)N[C@@H](CC(=O)O)C(=O)N2 [Compound 82] | – | < 0.1 | < 0.1 | –
4 | CC(C)C[C@@H]1NC(=O)[C@H](Cc2c[nH]cn2)NC(=O)[C@H](Cc2c[nH]c3ccccc23)NC(=O)[C@H](C)NC(=O)[C@@H]2CSSC[C@H](NC(=O)[C@H](Cc3c[nH]c4ccccc34)NC(=O)[C@H](C(C)C)NC(=O)[C@H](CC(C)C)NC(=O)[C@H](CCC(=O)O)NC(=O)CNC1=O)C(=O)N[C@@H]([C@@H](C)O)C(=O)N1CCC[C@@H]1C(=O)N1C[C@@H](NC(=O)COCC(=O)NC(COCCC(=O)NCCOCCOCCOCCOC[C@H]3OC[C@H](Nc4nccc(C(F)(F)F)n4)[C@@H](O)[C@H]3O)COCCC(=O)NCCOCCOCCOCCOC[C@H]3OC[C@H](Nc4nccc(C(F)(F)F)n4)[C@@H](O)[C@H]3O)C[C@H]1C(=O)N[C@@H](CC(=O)O)C(=O)N2 [Compound 46] | < 0.1 | < 0.1 | – | –
5 | CC(C)C[C@@H]1NC(=O)[C@H](Cc2c[nH]cn2)NC(=O)[C@H](Cc2c[nH]c3ccccc23)NC(=O)[C@H](C)NC(=O)[C@@H](NC(=O)[C@H](CC(=O)O)NC(=O)CCOCCOCCOCCOCCNC(=O)CCCc2cn(CCCCCC(=O)NC(COCCC(=O)NCCOCCOCCOCCO[C@@H]3O[C@H](CO)[C@H](O)[C@H](O)[C@H]3Nc3cncc(C(F)(F)F)n3)COCCC(=O)NCCOCCOCCOCCO[C@@H]3O[C@H](CO)[C@H](O)[C@H](O)[C@H]3Nc3cncc(C(F)(F)F)n3)nn2)CSSC[C@@H](C(=O)N[C@H](C(N)=O)[C@@H](C)O)NC(=O)[C@H](Cc2c[nH]c3ccccc23)NC(=O)[C@H](C(C)C)NC(=O)[C@H](CC(C)C)NC(=O)[C@H](CCC(=O)O)NC(=O)CNC1=O [Compound 89] | – | – | < 0.1 | < 0.1
6 | CC(C)C[C@@H]1NC(=O)[C@H](Cc2cnc[nH]2)NC(=O)[C@H](Cc2c[nH]c3ccccc23)NC(=O)[C@H](C)NC(=O)[C@@H](NC(=O)[C@@H](N)CC(=O)O)CSSC[C@@H](C(=O)N[C@H](C(N)=O)[C@@H](C)O)NC(=O)[C@H](Cc2c[nH]c3ccccc23)NC(=O)[C@H](C(C)C)NC(=O)[C@H](CC(C)C)NC(=O)[C@H](CCC(=O)NCCOCCOCCOCCOCCNC(=O)CCCc2cn(CCCCCC(=O)NC(COCCC(=O)NCCOCCOCCOCCOC[C@H]3OC[C@H](Nc4nccc(C(F)(F)F)n4)[C@@H](O)[C@H]3O)COCCC(=O)NCCOCCOCCOCCOC[C@H]3OC[C@H](Nc4nccc(C(F)(F)F)n4)[C@@H](O)[C@H]3O)nn2)NC(=O)CNC1=O [Compound 2] | 0.1 to 0.5 | < 0.1 | – | –
7 | CC(C)C[C@@H]1NC(=O)[C@H](Cc2c[nH]cn2)NC(=O)[C@H](Cc2c[nH]c3ccccc23)NC(=O)[C@H](C)NC(=O)[C@@H]2CSSC[C@H](NC(=O)[C@H](Cc3c[nH]c4ccccc34)NC(=O)[C@H](C(C)C)NC(=O)[C@H](CC(C)C)NC(=O)[C@H](CCC(=O)O)NC(=O)CNC1=O)C(=O)N[C@@H]([C@@H](C)O)C(=O)N1CCC[C@@H]1C(=O)N1C[C@H](NC(=O)c3ccc(N4CCC(CN5CCN(C[C@H]6OC[C@H](Nc7cncc(C(F)(F)F)n7)[C@@H](O)[C@H]6O)CC5)CC4)cc3)C[C@H]1C(=O)N[C@@H](CC(=O)O)C(=O)N2 [Compound 93] | – | < 0.1 | < 0.1 | –
8 | CC(C)C[C@@H]1NC(=O)[C@H](Cc2c[nH]cn2)NC(=O)[C@H](Cc2c[nH]c3ccccc23)NC(=O)[C@H](C)NC(=O)[C@@H]2CSSC[C@H](NC(=O)[C@H](Cc3c[nH]c4ccccc34)NC(=O)[C@H](C(C)C)NC(=O)[C@H](CC(C)C)NC(=O)[C@H](CCC(=O)O)NC(=O)CNC1=O)C(=O)N[C@@H]([C@@H](C)O)C(=O)N1CCC[C@@H]1C(=O)N1C[C@@H](NC(=O)CCOCCOCCOCCNC(=O)CCCc3cn(C[C@@]45CO[C@@H](O4)[C@H](Nc4nc(Cl)ns4)[C@@H](O)[C@H]5O)nn3)C[C@H]1C(=O)N[C@@H](CC(=O)O)C(=O)N2 [Compound 5] | < 0.1 | < 0.1 | – | –
9 | CC(C)C[C@@H]1NC(=O)[C@H](Cc2c[nH]cn2)NC(=O)[C@H](Cc2c[nH]c3ccccc23)NC(=O)[C@H](C)NC(=O)[C@@H]2CSSC[C@H](NC(=O)[C@H](Cc3c[nH]c4ccccc34)NC(=O)[C@H](C(C)C)NC(=O)[C@H](CC(C)C)NC(=O)[C@H](CCC(=O)O)NC(=O)CNC1=O)C(=O)N[C@@H]([C@@H](C)O)C(=O)N1CCC[C@@H]1C(=O)N1C[C@@H](NC(=O)COCCOCCOCC(=O)NC(COCCC(=O)NCCOCCOCCOCCOC[C@H]3OC[C@H](Nc4cncc(C(F)(F)F)n4)[C@@H](O)[C@H]3O)COCCC(=O)NCCOCCOCCOCCOC[C@H]3OC[C@H](Nc4cncc(C(F)(F)F)n4)[C@@H](O)[C@H]3O)C[C@H]1C(=O)N[C@@H](CC(=O)O)C(=O)N2 [Compound 40] | < 0.1 | < 0.1 | – | –
